Data from patent publication US6900194B1, “Use of substituted 4-biarylbutyric and 5-biarylpentanoic acid derivatives as matrix metalloprotease inhibitors for the treatment of respiratory diseases” (Bayer Aktiengesellschaft, priority 1998, dated 2005).
pIC50: −log10 of the molar value.

Tests used:
[1] = target: T1, MMP-12 (Macrophage Elastase) (Homo sapiens, UniProt P39900); assay: P218 quenched fluorescence assay, MMP-12; assay type: biochemical; conditions: table 3
T1 construct: made in house; host or cells: E. coli BL21 (DE3)
T1 sequence (P39900 106-470): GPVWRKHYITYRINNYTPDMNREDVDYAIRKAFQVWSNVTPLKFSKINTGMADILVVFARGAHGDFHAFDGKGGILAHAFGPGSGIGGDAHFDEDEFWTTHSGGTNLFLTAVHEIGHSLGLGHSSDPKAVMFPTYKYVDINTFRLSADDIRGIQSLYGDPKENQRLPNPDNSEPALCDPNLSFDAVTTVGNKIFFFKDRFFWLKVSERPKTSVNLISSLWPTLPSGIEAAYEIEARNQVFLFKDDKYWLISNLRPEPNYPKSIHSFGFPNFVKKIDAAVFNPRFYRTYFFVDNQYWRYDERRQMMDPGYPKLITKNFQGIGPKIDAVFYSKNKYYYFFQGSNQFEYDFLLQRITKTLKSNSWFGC
Excerpt: P218 Quenched Fluorescence Assay for MMP Inhibition:
This assay is adapted from the one described by Knight et al., FEBS Letters, 296, 263-266 (1992) for MMP-3 and a related substrate. The rate of hydrolysis of the synthetic substrate H-MCA-Pro-Lys-Pro-Leu-Ala-Leu-DPA-Ala-Arg-NH2 (P218) by the respective MMPs is monitored fluorometrically, using an excitation wavelength of 340 nm and an emission wavelength of 395 nm, in the presence or absence of the test compounds. The substrate is made up initially in 100% DMSO to a concentration of 1×10^−2 M, then diluted in assay buffer to a final concentration of 20 μM. Test compounds (10 mM in DMSO) are diluted in assay buffer at an initial concentration of 0.3-1000 nM. These are diluted to a final concentration in the assay from 0.03 nM to 100 nM. The reaction is initiated by the addition of substrate at a final concentration of 20 μM. The total assay volume in a 96 well microtitre plate is 150 μl, Cleavage of the substrate between the Leu-Ala residues allows the fluorescence of the MCA group to be detected on a fluorometer (Cytofluor II) following excitation at 340 nm and emission at 395 nm. Change in fluorescence is continually monitored for a 40 min period.
The Ki's are calculated using the method described by Williams and Morrison, Methods in Enzymology, 63, 437-467 (1979) to measure Ki apparent for tight binding inhibitors, and is summarised as follows: [I]0/(1−vi/v0)=Ki apparent ×vi/v0+[E]0 [I]0 and [E]0 are inhibitor and enzyme concentrations, and vi/v0 are reaction velocities with/without inhibitor. [I]0 is equal to IC50 when vi is half v0, so that: IC50=0.5×[E]0+Ki apparent
IC50's are determined at each enzyme concentration using Xlfit software. Ki apparent is then determined graphically from the plot of IC50 versus MMP concentration, using the intercepts to estimate Ki apparent. Thus, intercept values at IC50=0 and [E]0=0 are equal to −2×Ki apparent and Ki apparent, respectively. IC50 values are calculated using % inhibition values at each enzyme concentration, ensuring data is taken from the linear part of the reaction rate curves. The Ki can then be calculated from the equation: Ki=Ki apparent/[…] where S=substrate concentration and Km=dissociation constant.
The assay conditions are modified as follows for each of the MMPs used:
MMP-12 (Macrophage Elastase)
[…] is isolated according to the following procedure: Human GenePool cDNA libraries from human lung, spleen, and brain were obtained from Invitrogen (Groningen, The Netherlands). HPLC-purified oligonucleotides were purchased from BioTez (Berlin, Germany), E. coli strain DH5α from Life Technologies (Heidelberg, Germany), strain BL21(DE3) from Novagen (Heidelberg, Germany). Pfu DNA-Polymerase and pBlueScriptII-KS(+) were from Stratagene (Heidelberg, Germany). DNA plasmid and DANN gel isolation kits were purchased from Qiagen (Hilden, Germany). All restriction enzymes and DNA modifying enzymes were ordered from New England Biolabs (Schwalbach, Germany). HiTrapQ (5 ml) was from Pharmacia Biotech (Freiburg, Germany). Vydac C4-RP HPLC columns (214TP54: 300 Å, 5 μm, 4.6×250 mm; 214TP1022: 300 Å, 10 μm, 22×250 mm) were from Promochem (Wesel, Germany). Fluorogenic substrate P218 was purchased from Polypeptide Laboratories (Wolfenbüttel, Germany). Ultrapure urea was purchased from Schwarz-Mann (Cleveland, Ohio). Ready-to-use NuPAGE 10% Bis-Tris Polyacrylamide SDS-PAGE gels and NuPAGE 20×MOPS running buffer were obtained from Novex (Frankfurt/Main, Germany) 10% AMPA and all other chemicals were from Sigma (Deisenhofen, Germany). […]

[2] = test system: Human alveolar macrophages; conditions: read-out: IC50, inhibition of MCP-1-induced trafficking of human alveolar macrophages across artificial basement membrane; Matrigel; human MCP-1 5 ng/ml; 48-98 h; + or − lipopolysaccharide
Protocol: (§1) In vitro Functional Tests • 1. Human alveolar macrophages • Human alveolar macrophages were obtained by bronchoscopy of healthy smoking volunteers. Cells were spun and resuspended at 2×10^6/ml. Trafficking of alveolar macrophages (+or −lipopolysaccharide 2.5 μg.ml) across an artificial basement membrane (Matrigel) was induced by human MCP-1 (5 ng/ml) over a 48-98 h period. […] Murine peritoneal macrophages • Murine macrophages were obtained from mice 5 days after an intraperitoneal injection of thioglycollate. Cells were spun and resuspended at 2×10^6/ml. Trafficking of peritoneal macrophages across an artificial basement membrane (Matrigel) was induced by murine MCP-1 (5 ng/ml) over a 48-98 h period. […] LPS Induced TNFα Production in Mice

[3] = test system: Murine peritoneal macrophages; conditions: read-out: IC50, inhibition of trafficking of murine peritoneal macrophages across artificial basement membrane; Matrigel; murine MCP-1 5 ng/ml; 48-98 h
Protocol: as §1

pIC50 [1]	SMILES	pIC50 [2]	pIC50 [3]
8.35	O=C(O)[C@H]1[C@H](CN2C(=O)c3cc(Cl)c([N+](=O)[O-])cc3C2=O)CC[C@@H]1C(=O)c1ccc(-c2ccc(Cl)cc2)cc1 (racemic) [C-XXX]	–	–
8.80	O=C(CC(CCN1C(=O)c2ccccc2C1=O)C(=O)O)c1ccc(-c2ccc(OCc3ccccc3)cc2)cc1 (stereo not shown) [C-XXII]	–	–

More lines, now with the values behind:

SMILES	pIC50 [1]	pIC50 [2]	pIC50 [3]
O=C(O)[C@H]1[C@H](CN2C(=O)c3cc4ccccc4cc3C2=O)CC[C@@H]1C(=O)c1ccc(-c2ccc(Cl)cc2)cc1 (racemic) [C-XVIII]	9.00	–	–
O=C(c1ccc(-c2ccc(Cl)cc2)cc1)C1CCC(CN2C(=O)c3ccccc3C2=O)C1C(=O)O (stereo not drawn) [(1α,2β,5β)-2-{[4′-chloro(1,1′-biphenyl)-4-yl]carbonyl}-5-[(1,3-dihydro-1,3-dioxo-2H-isoindol-2-yl)methyl]-cyclopentane carboxylic acid]	–	≥ 6.00	≥ 6.00
CCCCCOc1ccc(-c2ccc(C(=O)CC(CCN3C(=O)c4ccccc4C3=O)C(=O)O)cc2)cc1 (stereo not shown) [C-III]	8.55	–	–
CCCOc1ccc2c(c1)C(=O)N(CCC(CC(=O)c1ccc(-c3ccc(Cl)cc3)cc1)C(=O)O)C2=O (stereo not shown) [C-V]	8.77	–	–
